Results published in US20240024273A1, “TOPICAL ADMINISTRATION OF 2-(DIETHYLAMINO)ETHYL 2-(4-ISOBUTYLPHENYL)PROPRIONATE FOR TREATMENT OF DISEASES” (TECHFIELDS PHARMA CO., LTD., priority 2020, published 2024).

Key:
Format in all cases: in vivo, human
[1] = tested on: osteoarthritis of the knee; assay: Second Phase 2 study: Subject Global Impression of Change (SGIC); conditions: Week 12; for SGIC, Good and Very good / SGIC, Poor and Very Poor / SGIC, fair: all subjects
Source text: (§1) 4.9.2. Secondary Efficacy Endpoints: • 1. Change from Baseline in the WOMAC (VAS) pain subscale score for the target knee at 2, 8, and 12 weeks of treatment; • 2. Change from Baseline in the WOMAC (VAS) stiffness subscale scores for the target knee and WOMAC (VAS) functional ability subscale scores at 2, 4, 8, and 12 weeks of treatment; • 3. Change from Baseline in the overall WOMAC (VAS) score at 2, 4, 8, and 12 weeks of treatment; • 4. Subject's global assessment of disease status of the target knee at 2, 4, 8, and 12 weeks of treatment; • 5. Subject's global assessment of response to therapy of the target knee at 2, 4, 8, and 12 weeks of treatment; • 6. Amount of rescue medication (acetaminophen) consumed per day for target knee pain.

[2] = tested on: osteoarthritis of the knee; assay: Second Phase 2 study: WOMAC (VAS) pain subscale score
Source text: This is a Phase 2, multicenter, randomized, double blind (within dose), Ibuprofen-placebo controlled, parallel group, dose range finding study to evaluate the efficacy, safety, and PK of 2-(diethylamino)ethyl 2-(4-isobutylphenyl)propionate spray in adult subjects with clinically symptomatic OA of the knee. For subjects with bilateral knee pain, both knees will be treated, but the most symptomatic knee (ie, the most painful knee as measured by the Western Ontario and McMaster University Osteoarthritis Index [WOMAC® 3.1] pain subscale score at Screening) will be designated as the target knee for efficacy analyses. For subjects with unilateral knee pain, only the symptomatic (target) knee will be treated.
The VAS version of the WOMAC will be used for the Primary and Secondary Efficacy Endpoints. Efficacy endpoints will be assessed at Screening and Baseline (Day 1) and at the Week 2, Week 4, Week 8, and Week 12/EOS visits.
The Primary Efficacy Endpoint is the change from Baseline in the WOMAC (VAS) pain subscale score for the target knee at […] of treatment.
as §1
The Primary Efficacy Endpoint is change from Baseline in the WOMAC (VAS) pain subscale score for the target knee at 4 weeks of treatment, and will be analyzed using an analysis of covariance (ANCOVA). Treatment will be included as a fixed class effect and WOMAC Baseline pain subscale score as covariates. The primary comparisons of interest will be the difference between active Group A (4.375 mg 2-(diethylamino)ethyl 2-(4-isobutylphenyl)propionate/knee) and combined placebo, active Group B (8.75 mg 2-(diethylamino)ethyl 2-(4-isobutylphenyl)propionate/knee) and combined placebo, and active Group C (17.5 mg 2-(diethylamino)ethyl 2-(4-isobutylphenyl)propionate/knee) and combined placebo.

[3] = tested on: osteoarthritis of the knee; assay: Second Phase 2 study: Subject's pain Assessment Scores (SPA); conditions: first 130 subjects
Experimental: Subjects will record the following information in a Daily Diary starting at Screening: the amount of knee pain in the target knee while walking during the preceding 24 hours (using a 100 mm visual analog scale [VAS]), the times and number of sprays for each administration of study medication, the times when the subject washes his/her knees and/or takes a shower, the number of tablets of rescue medication taken that day and the times taken, the reason for taking the rescue medication (e.g., knee pain, headache, low back pain), any other concomitant medications taken that day, and any AEs occurring that day.

[4] = 4.375 mg/knee BID (n = 23), first 130 subjects
[5] = 8.75 mg/knee BID (n = 24), first 130 subjects
[6] = 17.5 mg/knee BID (n = 19), first 130 subjects
[7] = 17.5 mg/knee BID, Week 12, first 130 subjects
[8] = Week 12, 4.375 mg/knee BID (n = 23), first 130 subjects
[9] = Week 12, 8.75 mg/knee BID (n = 24), first 130 subjects
[10] = Week 12, 17.5 mg/knee BID (n = 19), first 130 subjects
[11] = all subjects, 4.375 mg/knee BID, n = 49, Week 12
[12] = all subjects, 8.75 mg/knee BID, n = 54, Week 12
[13] = all subjects, 17.5 mg/knee BID, n = 52, Week 12
[14] = Week 12, 4.375 mg/knee BID (n = 23)

CCN(CC)CCOC(=O)C(C)c1ccc(CC(C)C)cc1 (stereo not shown) [2-(diethylamino)ethyl 2-(4-isobutylphenyl)propionate]
Subject's satisfaction rate (SGIC good and very good) ([1]; 17.5 mg/knee BID, first 130 subjects): 73.7%
SGIC: Good and Very good [1, 4]: 39.1%
SGIC: Poor and Very Poor [1, 4]: 4.3%
SGIC: fair [1, 4]: 56.5%
SGIC: Good and Very good [1, 5]: 37.5%
SGIC: Poor and Very Poor [1, 5]: 16.7%
SGIC: fair [1, 5]: 45.8%
SGIC: Good and Very good [1, 6]: 73.7%
SGIC: Poor and Very Poor [1, 6]: 5.3%
SGIC: fair [1, 6]: 21.1%
SGIC, Good and Very good ([1]; 4.375 mg/knee BID, n = 49): 32.7%
SGIC, Poor and Very Poor ([1]; 4.375 mg/knee BID, n = 49): 10.2%
SGIC, fair ([1]; 4.375 mg/knee BID, n = 49): 57.1%
SGIC, Good and Very good ([1]; 8.75 mg/knee BID, n = 54): 46.3%
SGIC, Poor and Very Poor ([1]; 8.75 mg/knee BID, n = 54): 16.7%
SGIC, fair ([1]; 8.75 mg/knee BID, n = 54): 37.0%
SGIC, Good and Very good ([1]; 17.5 mg/knee BID, n = 52): 61.5%
SGIC, Poor and Very Poor ([1]; 17.5 mg/knee BID, n = 52): 5.8%
SGIC, fair ([1]; 17.5 mg/knee BID, n = 52): 32.7%
WOMAC pain, difference from oral ibuprofen (3×400 mg/day) [2, 7]: −14.5 mm
WOMAC pain, difference from placebo [2, 7]: −15.0 mm
WOMAC Pain Subscale Score, Day 1, Avg. ([2]; Avg. of all patients, blinded, Middle Dose (4 spray/knee, 17.5 mg/knee) Cohort, Day 1): 61.0
WOMAC Pain Subscale Score, Follow-up, Avg. ([2]; Avg. of all patients, blinded, Middle Dose (4 spray/knee, 17.5 mg/knee) Cohort, Follow-up): 38.9
WOMAC Pain Subscale Score, Week 2, Avg. ([2]; Avg. of all patients, blinded, Middle Dose (4 spray/knee, 17.5 mg/knee) Cohort, Week 2): 46.0
WOMAC Pain Subscale Score, Week 4, Avg. ([2]; Avg. of all patients, blinded, Middle Dose (4 spray/knee, 17.5 mg/knee) Cohort, Week 4): 40.5
WOMAC Pain Subscale Score, Week 8, Avg. ([2]; Avg. of all patients, blinded, Middle Dose (4 spray/knee, 17.5 mg/knee) Cohort, Week 8): 35.9
WOMAC Pain Subscale Score, Week 12, Avg. ([2]; Avg. of all patients, blinded, Middle Dose (4 spray/knee, 17.5 mg/knee) Cohort, Week 12): 34.5
WOMAC Pain Subscale Scores, Baseline (LS Mean) [2, 4]: 60.0 mm
WOMAC Pain Subscale Scores, Baseline (LS Mean) [2, 5]: 61.0 mm
WOMAC Pain Subscale Scores, Baseline (LS Mean) [2, 6]: 64.1 mm
WOMAC Pain Subscale Scores, % of improvement from Oral Ibuprofen [2, 8]: −9.6%
WOMAC Pain Subscale Scores, % of improvement from Placebo [2, 8]: −8.7%
WOMAC Pain Subscale Scores, % of improvement from baseline [2, 8]: −41.8%
WOMAC Pain Subscale Scores, Changes from Baseline (LS Mean) [2, 8]: −25.7 mm
WOMAC Pain Subscale Scores, Different from oral ibuprofen (LS Mean) [2, 8]: −4.0 mm
WOMAC Pain Subscale Scores, Different from placebo (LS Mean) [2, 8]: −4.3 mm
WOMAC Pain Subscale Scores, Week 12 (LS Mean) [2, 8]: 34.3 mm
WOMAC Pain Subscale Scores, % of improvement from Oral Ibuprofen [2, 9]: −13.2%
WOMAC Pain Subscale Scores, % of improvement from Placebo [2, 9]: −12.3%
WOMAC Pain Subscale Scores, % of improvement from baseline [2, 9]: −45.4%
WOMAC Pain Subscale Scores, Changes from Baseline (LS Mean) [2, 9]: −27.7 mm
WOMAC Pain Subscale Scores, Different from oral ibuprofen (LS Mean) [2, 9]: −6.1 mm
WOMAC Pain Subscale Scores, Different from placebo (LS Mean) [2, 9]: −6.6 mm
WOMAC Pain Subscale Scores, Week 12 (LS Mean) [2, 9]: 33.3 mm
WOMAC Pain Subscale Scores, % of improvement from Oral Ibuprofen [2, 10]: −24.3%
WOMAC Pain Subscale Scores, % of improvement from Placebo [2, 10]: −23.4%
WOMAC Pain Subscale Scores, % of improvement from baseline [2, 10]: −56.5%
WOMAC Pain Subscale Scores, Changes from Baseline (LS Mean) [2, 10]: −36.2 mm
WOMAC Pain Subscale Scores, Different from oral ibuprofen (LS Mean) [2, 10]: −14.5 mm
WOMAC Pain Subscale Scores, Different from placebo (LS Mean) [2, 10]: −15.0 mm
WOMAC Pain Subscale Scores, Week 12 (LS Mean) [2, 10]: 27.9 mm
WOMAC Pain Subscale Scores, % of improvement from Oral Ibuprofen [2, 11]: −0.7%
WOMAC Pain Subscale Scores, % of improvement from Placebo [2, 11]: −5.2%
WOMAC Pain Subscale Scores, % of improvement from baseline [2, 11]: −41.9%
WOMAC Pain Subscale Scores, Changes from Baseline (LS Mean) [2, 11]: −25.6 mm
WOMAC Pain Subscale Scores, Week 12 (LS Mean) [2, 11]: 35.5 mm
WOMAC Pain Subscale Scores, % of improvement from Oral Ibuprofen [2, 12]: −4.9%
WOMAC Pain Subscale Scores, % of improvement from Placebo [2, 12]: −9.4%
WOMAC Pain Subscale Scores, % of improvement from baseline [2, 12]: −46.1%
WOMAC Pain Subscale Scores, Changes from Baseline (LS Mean) [2, 12]: −28.6 mm
WOMAC Pain Subscale Scores, Different from oral ibuprofen (LS Mean) [2, 12]: −3.2 mm
WOMAC Pain Subscale Scores, Different from placebo (LS Mean) [2, 12]: −6.0 mm
WOMAC Pain Subscale Scores, Week 12 (LS Mean) [2, 12]: 33.4 mm
WOMAC Pain Subscale Scores, % of improvement from Oral Ibuprofen [2, 13]: −9.8%
WOMAC Pain Subscale Scores, % of improvement from Placebo [2, 13]: −14.3%
WOMAC Pain Subscale Scores, % of improvement from baseline [2, 13]: −51.0%
WOMAC Pain Subscale Scores, Changes from Baseline (LS Mean) [2, 13]: −31.7 mm
WOMAC Pain Subscale Scores, Different from oral ibuprofen (LS Mean) [2, 13]: −6.3 mm
WOMAC Pain Subscale Scores, Different from placebo (LS Mean) [2, 13]: −9.1 mm
WOMAC Pain Subscale Scores, Week 12 (LS Mean) [2, 13]: 30.5 mm
SPA, difference from oral ibuprofen ([3]; 17.5 mg/knee BID, Week 12): −14.1 mm
SPA, difference from placebo ([3]; 17.5 mg/knee BID, Week 12): −21.0 mm
Subject’s pain Assessment Scores, Baseline (LS Mean) ([3]; 4.375 mg/knee BID (n = 23)): 59.7 mm
Subject’s pain Assessment Scores, Baseline (LS Mean) ([3]; 8.75 mg/knee BID (n = 24)): 63.5 mm
Subject’s pain Assessment Scores, Baseline (LS Mean) ([3]; 17.5 mg/knee BID (n = 19)): 68.6 mm
Subject’s pain Assessment Scores, % of improvement from Oral Ibuprofen [3, 14]: −2.3%
Subject’s pain Assessment Scores, % of improvement from baseline [3, 14]: −38.5%
Subject’s pain Assessment Scores, % of improvement from placebo [3, 14]: −9.3%
Subject’s pain Assessment Scores, Changes from Baseline (LS Mean) [3, 14]: −23.0 mm
